Drawing on US7205298B2, “Substituted triazine kinase inhibitors” (Janssen Pharmaceutica N.V., priority 2002, dated 2007), this text covers IC50 for one molecule.

What all share (type): biochemical
The target of one test is T1, EGF-R1 (Homo sapiens, UniProt P00533).
T1 construct: purified from human A431 cell membranes; purchased Sigma E3641; host or cells: human A431 cell membranes (endogenous protein)
Briefly: Kinase selectivity assay EGF-R1. How it is done:
(§1) Assays to test compound inhibition of other kinases were preformed using methods that measure the amount of phosphorylation of a biotinylated peptide substrate. Biotinylated peptide substrates were selected from the literature as appropriate for the enzyme being evaluated. […] Assay conditions vary slightly for each protein kinase, for example, insulin receptor kinase requires 10 mM MnCl2 for activity and Calmodulin-dependent protein kinase requires calmodulin and 2 mM CaCl2. The reaction mixture was dispensed into the wells of a streptavidin coated Flashplate and 1 μL test compound in 100% DMSO was added to a 100 μL reaction volume resulting in a final concentration of 1% DMSO in the reaction. Enzyme was diluted in 50 mM Tris-HCl pH=8.0, 0.1% BSA and added to each well. The reaction was incubated for one hour at 30° C. in the presence of a test compound. After one hour the reaction mix was aspirated from the plate and the plate was washed with PBS containing 100 mM EDTA. The plate was read on a scintillation counter to determine ^33P-γ-ATP incorporated into the immobilized peptide substrate. Test compounds were assayed in duplicate at 8 concentrations (100 μM, 10 μM, 1 μM, 100 nM, 10 nM, 1 nM, 100 pM, 10 pM). A maximum and minimum signal for the assay was determined on each plate. […] Known inhibitor compounds appropriate for the kinase being assayed were also included on each plate. […]

Another test deals with T2, PKC β-2 (Homo sapiens, UniProt P05771).
T2 construct: purchased BIOMOL SE-143; host or cells: insect cells
Briefly: Kinase selectivity assay PKC β-2. On the procedure: Assays to test compound inhibition of other kinases were preformed using methods that measure the amount of phosphorylation of a biotinylated peptide substrate. Biotinylated peptide substrates were selected from the literature as appropriate for the enzyme being evaluated. The general procedure used to assay for kinase activity is as follows: a kinase reaction mix was prepared in 50 mM Tris-HCl pH=8, 10 mM MgCl2, 0.1 mM Na3VO4, 1 mM DTT, 10 μM ATP, 0.25–1 μM biotinylated peptide substrate, 0.2–0.8 μCuries per well ^33P-γ-ATP (2000–3000 Ci/mmol). Assay conditions vary slightly for each protein kinase, for example, insulin receptor kinase requires 10 mM MnCl2 for activity and Calmodulin-dependent protein kinase requires calmodulin and 2 mM CaCl2. The reaction mixture was dispensed into the wells of a streptavidin coated Flashplate and 1 μL test compound in 100% DMSO was added to a 100 μL reaction volume resulting in a final concentration of 1% DMSO in the reaction. Enzyme was diluted in 50 mM Tris-HCl pH=8.0, 0.1% BSA and added to each well. The reaction was incubated for one hour at 30° C. in the presence of a test compound. […] The plate was read on a scintillation counter to determine ^33P-γ-ATP incorporated into the immobilized peptide substrate. […] A maximum and minimum signal for the assay was determined on each plate. […]

The target of test [1] is T3, Casein Kinase 1 (CK1 delta isoform) (Rattus norvegicus, UniProt Q06486).
T3 construct: a truncation at amino acid 318 of the C-terminal portion of the rat CK1 delta isoform; purchased New England Biolabs 6030; host or cells: E. coli
T3 sequence (Q06486 1-317): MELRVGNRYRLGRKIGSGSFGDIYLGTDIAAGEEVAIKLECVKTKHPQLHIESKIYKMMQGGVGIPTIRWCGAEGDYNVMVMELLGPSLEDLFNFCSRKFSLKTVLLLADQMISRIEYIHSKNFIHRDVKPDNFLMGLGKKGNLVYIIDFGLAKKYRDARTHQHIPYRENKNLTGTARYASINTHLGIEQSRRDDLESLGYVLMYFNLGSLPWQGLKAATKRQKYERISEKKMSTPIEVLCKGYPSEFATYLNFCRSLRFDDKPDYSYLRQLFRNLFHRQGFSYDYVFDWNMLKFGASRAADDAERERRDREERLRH
Briefly: Kinase selectivity assay Casein Kinase 1. On the procedure:
as §1

T1 sequence (P00533 25-1210): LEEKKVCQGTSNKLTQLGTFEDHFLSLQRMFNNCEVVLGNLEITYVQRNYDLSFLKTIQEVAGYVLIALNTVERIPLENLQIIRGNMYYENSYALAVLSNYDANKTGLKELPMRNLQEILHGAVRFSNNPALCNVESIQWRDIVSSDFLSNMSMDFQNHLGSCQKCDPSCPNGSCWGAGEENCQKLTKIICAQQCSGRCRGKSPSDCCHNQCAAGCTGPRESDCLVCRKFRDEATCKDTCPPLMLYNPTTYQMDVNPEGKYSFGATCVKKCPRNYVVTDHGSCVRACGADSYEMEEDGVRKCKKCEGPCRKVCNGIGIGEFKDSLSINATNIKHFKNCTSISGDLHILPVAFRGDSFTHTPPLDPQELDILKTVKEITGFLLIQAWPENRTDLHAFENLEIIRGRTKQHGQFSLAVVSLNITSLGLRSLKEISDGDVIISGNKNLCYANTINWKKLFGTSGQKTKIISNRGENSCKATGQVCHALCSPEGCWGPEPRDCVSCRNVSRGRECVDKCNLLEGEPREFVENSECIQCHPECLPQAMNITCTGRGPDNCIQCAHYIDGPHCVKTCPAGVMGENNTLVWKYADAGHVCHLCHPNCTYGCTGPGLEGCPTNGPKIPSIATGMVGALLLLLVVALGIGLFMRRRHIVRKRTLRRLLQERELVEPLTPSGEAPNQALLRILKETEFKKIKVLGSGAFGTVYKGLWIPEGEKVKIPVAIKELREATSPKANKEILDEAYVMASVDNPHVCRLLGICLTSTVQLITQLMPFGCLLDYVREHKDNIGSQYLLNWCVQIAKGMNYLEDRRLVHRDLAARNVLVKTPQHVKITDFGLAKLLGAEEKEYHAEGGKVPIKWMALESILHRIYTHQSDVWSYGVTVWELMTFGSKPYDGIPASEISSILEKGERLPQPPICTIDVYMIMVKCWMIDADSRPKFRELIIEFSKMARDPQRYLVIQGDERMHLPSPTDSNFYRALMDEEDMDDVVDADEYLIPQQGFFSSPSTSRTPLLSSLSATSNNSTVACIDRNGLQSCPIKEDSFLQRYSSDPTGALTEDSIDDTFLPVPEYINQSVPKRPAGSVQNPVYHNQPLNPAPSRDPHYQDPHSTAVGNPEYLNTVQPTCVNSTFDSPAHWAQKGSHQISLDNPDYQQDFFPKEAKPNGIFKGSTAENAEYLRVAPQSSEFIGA
T2 sequence (P05771 1-673 isoform P05771-2): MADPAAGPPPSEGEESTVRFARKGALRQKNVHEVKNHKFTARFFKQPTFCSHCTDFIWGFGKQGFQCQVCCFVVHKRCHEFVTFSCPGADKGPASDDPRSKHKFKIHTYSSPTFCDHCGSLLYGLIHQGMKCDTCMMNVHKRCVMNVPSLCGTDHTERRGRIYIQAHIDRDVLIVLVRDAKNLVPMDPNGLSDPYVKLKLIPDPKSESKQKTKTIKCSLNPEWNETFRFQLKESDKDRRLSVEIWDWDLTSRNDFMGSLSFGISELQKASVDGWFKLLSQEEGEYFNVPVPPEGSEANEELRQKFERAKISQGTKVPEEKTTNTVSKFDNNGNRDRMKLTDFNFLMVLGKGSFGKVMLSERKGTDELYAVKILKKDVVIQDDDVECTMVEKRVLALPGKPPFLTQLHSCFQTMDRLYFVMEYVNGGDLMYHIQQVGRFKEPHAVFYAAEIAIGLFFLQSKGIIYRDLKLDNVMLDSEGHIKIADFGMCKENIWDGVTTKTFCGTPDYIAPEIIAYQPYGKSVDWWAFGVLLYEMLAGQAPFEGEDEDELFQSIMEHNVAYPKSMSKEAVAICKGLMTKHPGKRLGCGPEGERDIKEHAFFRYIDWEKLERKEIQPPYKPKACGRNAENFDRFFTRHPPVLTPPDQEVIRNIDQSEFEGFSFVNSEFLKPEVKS

As to `OCCCNc1cncc(-c2ncnc(Nc3cccc(Cl)c3)n2)c1` [Compound 1, 3-((5-(4-((3-chlorophenyl)amino)-1,3,5-triazin-2-yl)-3-pyridinyl)amino)-1-propanol], the IC50 at EGF-R1 was > 100 µM; against PKC β-2 it was > 100 µM; in test [1], 0.115 µM.

One may read the IC50 as the concentration at which inhibition is half-maximal. Read a low IC50 as greater potency in that assay.
